Assay results reported in patent US10076519B2 (CYTOKINETICS, INC., priority 2010, dated 2018).

What follows are compounds tested on rabbit skeletal myofibrils (fast skeletal myofibrils) (assay: Activation of fast skeletal myofibrils (PUMA assay, PK/LDH-coupled ATPase at pCa25)). Details: AC1.4 determined according to the procedure of Example 39; reported as class symbols.
Format: biochemical
In short: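 ATPase activity of Triton-washed rabbit skeletal myofibrils, roughly 90% fast fibres, tracked by NADH loss at 340 nm through a PK/LDH-coupled ADP-regenerating system. Calcium set to 25% of maximal activity (pCa25), in PIPES 12 mM pH 6.8 with 2 mM MgCl2 and 1 mM DTT; AC1.4 reported.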

Compound	Mean AC1.4
CC(C)(CNc1ccc(-c2ccc3[nH]nc(N)c3c2)nn1)c1cccc(C(N)=O)c1	D (D=>20 uM)
N#Cc1ccnc(C2(CNc3ccc(-c4cc(C(N)=O)ccc4F)nn3)CCC2)c1	B (B=1-10 uM)
CC(C)(CNc1ccc(-c2ccc3nc(N)[nH]c(=O)c3c2)nn1)c1ccc(F)cc1	A (A=<1 uM)
NC(=O)c1cccc(-c2ccc(NCCc3ccc(Cl)cc3Cl)nn2)c1	C (C=10-20 uM)
CC(C)(CNc1ccc(C(=O)N[C@@H](Cc2ccccc2)C(N)=O)nn1)c1ccc(F)cc1 [N-((1S)-1-carbamoyl-2-phenylethyl)(6-{[2-(4-fluorophenyl)-2-methylpropyl]amino}pyridazin-3-yl)carboxamide]	C (C=10-20 uM)
CC(C)(CNc1ccc(-c2cccc(C(=O)c3ccccc3)c2)nn1)c1ccc(F)cc1 [3-(6-{[2-(4-fluorophenyl)-2-methylpropyl]amino}pyridazin-3-yl)phenyl phenyl ketone]	D (D=>20 uM)
CC(C)(CNc1ccc(C(=O)NCC(N)=O)nn1)c1ccc(F)cc1 [N-(carbamoylmethyl)(6-{[2-(4-fluorophenyl)-2-methylpropyl]amino}pyridazin-3-yl)carboxamide]	D (D=>20 uM)
CC(C)(CNc1ccc(-c2cccc(C(=O)NCC(O)CO)c2)nn1)c1ccc(F)cc1 (stereo not shown) [N-(2,3-dihydroxypropyl)[3-(6-{[2-(4-fluorophenyl)-2-methylpropyl]amino}pyridazin-3-yl)phenyl]carboxamide]	B (B=1-10 uM)
NC(=O)c1cccc(-c2ccc(NCCc3ccncc3)nn2)c1 [3-{6-[(2-(4-pyridyl)ethyl)amino]pyridazin-3-yl}benzamide]	D (D=>20 uM)
CC(C)=Cc1ccc(NCC(C)(C)c2ccc(F)cc2)nn1 [[2-(4-fluorophenyl)-2-methylpropyl][6-(2-methylprop-1-enyl)pyridazin-3-yl]amine]	B (B=1-10 uM)
COc1ccnc(C2(CNc3ccc(-c4ccc5[nH]ncc5c4)nn3)CCC2)c1 [(6-(1H-indazol-5-yl)pyridazin-3-yl){[(4-methoxy(2-pyridyl))cyclobutyl]methyl}amine]	A (A=<1 uM)
CC(C)(CNc1ccc(C(=O)N2CCCC(C(N)=O)C2)nn1)c1ccc(F)cc1 (stereo not shown) [1-[(6-{[2-(4-fluorophenyl)-2-methylpropyl]amino}pyridazin-3-yl)carbonyl]piperidine-3-carboxamide]	D (D=>20 uM)

Same assay, conditions: median AC1.4 class, procedure of Example 39

Compound	Mean AC1.4
NC(=O)c1ccc(F)c(-c2ccc(NC3(c4ncccc4F)CCC3)nn2)c1	B (B=1-10 uM)
NC(=O)c1nc(-c2ccc(NCC3(c4ncccc4F)CCC3)nn2)cs1 [4-[6-({[(3-fluoro-2-pyridyl)cyclobutyl]methyl}ami-no)pyridazin-3-yl]-1,3-thiazole-2-carboxamide]	B (B=1-10 uM)
Fc1cccnc1C1(CNc2ccc(-c3cccc(F)c3F)nn2)CCC1 [[6-(2,3-difluorophenyl)pyridazin-3-yl]{[(3-fluoro(2-pyridyl))cyclobutyl]methyl}amine]	A (A=<1 uM)
CC(C)(O)CNC(=O)c1ccc(F)c(-c2ccc(NC3(c4ccc(F)cc4)CCC3)nn2)c1	B (B=1-10 uM)
CS(=O)(=O)Nc1ccc(-c2ccc(NC3(c4ccc(F)cc4)CCC3)nn2)cc1	B (B=1-10 uM)
Nc1ncccc1-c1ccc(NCC2(c3ncccc3F)CCC2)nn1 [[6-(2-amino(3-pyridyl))pyridazin-3-yl]{[(3-fluoro(2-pyridyl))cyclobutyl]methyl}amine]	B (B=1-10 uM)
O=c1[nH][nH]c2ccc(-c3ccc(NCC4(c5ncccc5F)CCC4)nn3)cc12	A (A=<1 uM)
CS(=O)(=O)Nc1cccc(-c2ccc(NC3(c4ccc(F)cc4)CCC3)nn2)c1	A (A=<1 uM)
Fc1cccnc1C1(CNc2ccc(-c3ccc(N4CCOCC4)cc3)nn2)CCC1 [{[(3-fluoro(2-pyridyl))cyclobutyl]methyl}[6-(4-morpholin-4-ylphenyl)pyridazin-3-yl]amine]	D (D=>20 uM)
NC(=O)c1ccc(F)c(-c2ccc(NC3(c4ncccc4Br)CCC3)nn2)c1	A (A=<1 uM)
NC(=O)c1ncc(-c2ccc(NCC3(c4ncccc4F)CCC3)nn2)o1	B (B=1-10 uM)
CC(C)(Nc1ccc(-c2cccc(C(N)=O)c2)nn1)c1cccc(OC(F)F)n1 [3-[6-({1-[6-(difluoromethoxy)(2-pyridyl)]-isopropyl}amino)pyridazin-3-yl]benzamide]	B (B=1-10 uM)
O=C(O)c1cnc(-c2ccc(NCC3(c4ncccc4F)CCC3)nn2)s1 [2-[6-({[(3-fluoro-2-pyridyl)cyclobutyl]methyl}ami-no)pyridazin-3-yl]-1,3-thiazole-5-carboxylic acid]	C (C=10-20 uM)
CC(C)(CNc1ccc(-c2ccc3[nH]nc(NCCOCc4ccccc4)c3c2)nn1)c1ccc(F)cc1 [[2-(4-fluorophenyl)-2-methylpropyl][6-(3-{[2-(phenylmethoxy)ethyl]amino}(1H-indazol-5-yl))pyridazin-3-yl]amine]	A (A=<1 uM)
O=C(NC1CCS(=O)(=O)C1)c1cnc(-c2ccc(NCC3(c4ncccc4F)CCC3)nn2)s1 (stereo not shown) [N-(1,1-dioxothiolan-3-yl){2-[6-({[(3-fluoro(2-pyridyl))cyclobutyl]methyl}ami-no)pyridazin-3-yl](1,3-thiazol-5-yl)}carboxamide]	A (A=<1 uM)

Same assay, conditions: median AC1.4 reported as class; procedure of Example 39

Compound	Mean AC1.4
O=C(O)c1cc(-c2ccc(NCC3(c4ncccc4F)CCC3)nn2)c[nH]c1=O [5-[6-({[(3-fluoro(2-pyridyl))cyclobutyl]methyl}ami-no)pyridazin-3-yl]-2-oxohydropyridine-3-carboxylic acid]	D (D=>20 uM)
Cn1cc(NC(=O)c2ccc(NCC3(c4ncccc4F)CCC3)nn2)nc1C(N)=O [4-{[6-({[(3-fluoro(2-pyridyl))cyclobutyl]methyl}ami-no)pyridazin-3-yl]carbonylamino}-1-methylimidazole-2-carboxamide]	D (D=>20 uM)
Nc1ncc(-c2ccc(NC[C@]3(c4ncccc4F)C[C@H](F)C3)nn2)cc1C(F)(F)F [{6-[6-amino-5-(trifluoromethyl)(3-pyridyl)]pyridazin-3-yl}{[3-fluoro-1-(3-fluoro(2-pyridyl))cyclobutyl]methyl}amine]	B (B=1-10 uM)
CC1(C)C(=O)NN=C1c1ccc(NCC2(c3ncccc3F)CCC2)nn1 [3-[6-({[(3-fluoro(2-pyridyl))cyclobutyl]methyl}ami-no)pyridazin-3-yl]-4,4-dimethyl-2-pyrazolin-5-one]	D (D=>20 uM)
NC(=O)c1cc(O)cc(-c2ccc(NC[C@]3(c4ncccc4F)C[C@H](F)C3)nn2)c1 [3-[6-({[3-fluoro-1-(3-fluoro(2-pyridyl))cyclobutyl]methyl}ami-no)pyridazin-3-yl]-5-hydroxybenzamide]	A (A=<1 uM)
CNC(=O)c1cc(-c2ccc(NC[C@]3(c4ncccc4F)C[C@H](F)C3)nn2)ccc1F [{2-fluoro-5-[6-({[3-fluoro-1-(3-fluoro(2-pyridyl))cyclobutyl]methyl}ami-no)pyridazin-3-yl]phenyl}-N-methylcarboxamide]	C (C=10-20 uM)
CN(C)C(=O)Cc1cnc(-c2ccc(NCC3(c4ncccc4F)CCC3)nn2)s1 [2-{2-[6-({[(3-fluoro(2-pyridyl))cyclobutyl]methyl}ami-no)pyridazin-3-yl](1,3-thiazol-5-yl)}-N,N-dimethylacetamide]	B (B=1-10 uM)
